Assay results: patent US4370331A, “L-Glaucine containing composition for cough relief” (Karl O. Helm Aktiengesellschaft, priority 1977, dated 1983)
Where “and” joins values, the source holds several entries; their conditions need not be identical. Equal entries are not always repeated. Structures can show the parent of a compound that is named as a salt. Where two headings read alike, the source gives them in different places.

Experiments:
[1] = test system: smooth muscles of isolated guinea pigs intestine; assay: Effect on smooth muscles of isolated guinea pig intestine in a bath, Comparative test 3; conditions: for spontaneous activity and tone, in words: molar concentrations between 1×10^-5 and 8×10^-5
Experimental: Experiments were conducted in vitro to determine the effects of different active substances on the smooth muscles of isolated guinea pigs intestine samples suspended in a bath. After adding to the bath different doses of the active substances, the contractive force of the muscle material was recorded.

[2] = test system: isolated guinea pig intestines (contractions induced by electric voltages); assay: Suppression of electrically induced contractions in isolated guinea pig intestines, Comparative test 4; parameters: electrically induced contractions (Table III): unit not given here
Experimental: In a further series of tests the effects of different doses of codeine phosphate in suppressing contractions induced in isolated guinea pig intestines by electric voltages were tested. For this purpose one electrode was immersed in the solution surrounding the intestinal preparation. The second electrode was connected to the preparation at the attachment point.

cough pulses [3] = assay: Oral citric acid aerosol cough test in guinea pigs, 1 h (equivalent effective doses), Comparative test 6; assay type: in vivo; conditions: for Cough pulses percent of control value: 20% citric acid aerosol 8 min
mice = assay: Toxicity (LD50) in mice by the Wilcox method, Comparative test 7; assay type: in vivo; conditions: hydrobromide
Experimental: (§1) The toxicity thresholds of codeine phosphate, of d-glaucine hydrobromide and of d,l-glaucine hydrobromide were determined in mice by the Wilcox method. […] The toxicities of codeine phosphate and d,l-glaucine hydrobromide are about equal.

[4] = as above; assay type: in vivo; conditions: mouse, in vivo
Experimental: as §1

cough pulses [5] = assay: Citric acid aerosol cough test in guinea pigs, subcutaneous, 30 min (method of Friebel and Reichle), Comparative test 1; assay type: in vivo; conditions: s.c.; for ED50: Cavia porcellus, sc, 0.5 h, 30 min after administering, 20% citric acid aerosol, 8 min
Experimental: In order to compare the anti-cough effectiveness of codeine phosphate with the effectiveness of the different isomers of glaucine hydrobromide, the testing method of Friebel and Reichle was used. 60 guinea pigs with weights between 200 and 300 g were divided up into ten groups of different sizes. Before administering the active substance, each animal was subjected, on the same day as the day of test with the active substance, for a period of 8 minutes to an aerosol of 20% citric acid, the animal being confined in a chamber at constant air pressure. During this control test the number of cough pulses was counted with the help of a pressure transmitter. From these measurements an average control value for each group was calculated. After this preliminary control test, there was given subcutaneously to each animal of each group a suspension of the active substance in 1% sodium carboxymethyl cellulose. After 30 minutes each animal was again exposed in the test chamber for 8 minutes to the aerosol of 20% citric acid and the number of cough pressure pulses recorded. The different active substances were administered in increasing doses ranging from 3 mg/kg to 100 mg/kg of body weight. Altogether eight different doses were given. The results were expressed as percent deviation from the average control value for the group on the same day, the deviation being entered in a diagram against the logarithm of the dose administered. From the resulting effectiveness curve, based on the logarithm of the dose, the coefficient of correlation and the ED50 were calculated for each active substance, by the regression analysis method of Downie and Heath (1965). The values obtained for codeine phosphate, for d-glaucine hydrobromide, for d,l-glaucine hydrobromide and for l-glaucine hydrobromide thirty minutes after administering the active substance are summarized in Table I.

[6] = test system: isolated guinea pig intestines (contractions induced by electric voltages); assay: Suppression of electrically induced contractions in isolated guinea pig intestines, Comparative test 4; conditions: isolated guinea pig intestine; codeine: increased doses; d-glaucine: higher concentrations than 4×10^-5; d,l-glaucine: 4×10^-5 to 6×10^-5
cough pulses [7] = assay: Oral citric acid aerosol cough test in guinea pigs, time course 1-24 h, Comparative test 6; assay type: in vivo; conditions: for Cough pulses during 8 minutes, percent of control value, after 1 h / Cough pulses during 8 minutes, percent of control value, after 3 h / Cough pulses during 8 minutes, percent of control value, after 5 h / Cough pulses during 8 minutes, percent of control value, after 24 h: codeine phosphate 75, d,l-glaucine hydrobromide 150, hydrochloride 135, embonate 378 mg/kg
Experimental: In a further comparative test, 40 female guinea pigs with body weights between 230 and 500 g were divided into 4 groups and each animal was again subjected to the action of a 20% citric acid aerosol for 8 minutes. From the control values thus obtained the average control value for each group was calculated. Each animal of each group was then given, by means of a throat probe, either 75 mg/kg of codeine phosphate, or 135 mg/kg of d,l-glaucine hydrochloride, or 150 mg/kg of d,1-glaucine hydrobromide, or 378 mg/kg of d,l-glaucine embonate. These doses are the equimolar quantities, based on glaucine. After a period of 1, or 3, or 5, or 24 hours each animal was again subjected for 8 minutes to the action of the citric acid aerosol, and the number of cough pulses during this period was recorded. The values thus obtained were compared with the control values and the percent deviation of the average measured value for each group, from the average control value, was calculated.

coughing centre = assay: Coughing reflex by electrical stimulation of upper laryngeal nerves of anaesthetized cats (method of Domenjoz), Comparative test 5; assay type: in vivo; conditions: intravenous; for minimal effective dose: Felis catus, read-out: MED (minimal effective dose completely suppressing the coughing reflex); for minimal effective dose / Duration of cough suppression: anaesthetized cats; for Duration of cough suppression: at MED
Experimental: In a series of tests conducted by the method of Domenjoz, the effects of the different active substances on the coughing centre was examined by electrical stimulation of the upper laryngeal nerves of anaesthetized cats. Electrical stimulation of the nerve produces a coughing reflex and the intention is to reduce this by intravenous injection of the active substance. The minimal effective dose MED is determined by increasing the dose from 0.1 mg/kg of body weight up to 0.3 mg/kg, 1.0 mg/kg, 3.0 mg/kg and 6.0 mg/kg, until the dose is sufficient for completely suppressing the coughing reflex.
In these tests each animal was given, on the one hand, codeine and, on the other hand, at sufficient time intervals also glaucine, so that the ratio of the minimal effective doses of glaucine and codeine can be deduced.

intestinal motility = assay: Intestinal motility / evacuation action of stomach-intestinal tract of mice (carbon suspension), Comparative test 2; assay type: in vivo; conditions: s.c., 2 h, control 74.3%, * = significantly different from control (p < 0.05)
Source text: One of the most unpleasant side effects of anti-cough medicine containing codeine is constipation and the occurrence of intestinal spasms. A model test for determining the effects of anti-cough active substances on intestinal motility and on the evacuation action of the stomach-intestinaltract of mice was therefore made. After subcutaneous injection of the active substance, each animal was given, through a throat probe, a 10% suspension of carbon in a 5% aqueous slurry of gum arabic. Two hours later the intestine was sectioned and the distance of stomach coecum measured, and also the distance travelled by the carbon, which was expressed as percent of intestine length.
The effects of codeine phosphate, of d-glaucine hydrobromide and of l-glaucine hydrobromide on intestinal motility were determined at different doses. For each dose the average value was calculated for a sufficient number of animals.

[8] = po, peroral, read-out: LD50 peroral
[9] = sc, subcutaneous, read-out: LD50 subcutaneous

COc1cc2c(cc1OC)-c1c(OC)c(OC)cc3c1[C@@H](C2)N(C)CC3 [l-glaucine]
spasmogenic activity ([1]; in vitro, isolated guinea pig intestine): no spasmogenic activity
spontaneous activity and tone, in words [1]: a reduction in spontaneous activity and no increase in tone

COc1cc2c(cc1OC)-c1c(OC)c(OC)cc3c1C(C2)N(C)CC3 (racemic) [d,l-glaucine hydrobromide]
suppression of electrically induced spasms, in words ([2]; 4×10^-5 to 6×10^-5): suppress the electrically induced spasms practically completely
electrically induced contractions (Table III) ([2]; molar concentration 1 × 10^-5): 63
electrically induced contractions (Table III) ([2]; molar concentration 2 × 10^-5): 48
electrically induced contractions (Table III) ([2]; molar concentration 4 × 10^-5): 8
electrically induced contractions (Table III) ([2]; molar concentration 4 × 10^-6): 81
electrically induced contractions (Table III) ([2]; molar concentration 8 × 10^-6): 63
Cough pulses percent of control value (cough pulses [3]; 100 mg/kg): 30%
Cough pulses percent of control value (cough pulses [3]; 200 mg/kg): 44%
dose having about the same effect (codeine phosphate vs d,l-glaucine hydrobromide) (cough pulses [3]; guinea pigs): ~150 mg per kg of body weight
toxicity, comparison in words (mice): about equal
LD50 [4, 8]: 686 mg/kg
LD50 [4, 9]: 320 mg/kg
ED50 (cough pulses [5]): 27.2 mg/kg
ED50 value, comparison in words (cough pulses [5]; 30 min): even lower ED50 value than l-glaucine hydrobromide
induced spontaneous activity, in words [6]: without at the same time inducing any spontaneous activity
Cough pulses during 8 minutes, percent of control value, after 1 h (cough pulses [7]; hydrobromide): 90%
Cough pulses during 8 minutes, percent of control value, after 3 h (cough pulses [7]; hydrobromide): 47%
Cough pulses during 8 minutes, percent of control value, after 5 h (cough pulses [7]; hydrobromide): 59%
Cough pulses during 8 minutes, percent of control value, after 24 h (cough pulses [7]; hydrobromide): 113%
minimal effective dose (coughing centre): 1 mg/kg
Duration of cough suppression (coughing centre): 44 to 62 min
duration of the effect, in words (coughing centre; at minimal dose): considerably greater for the d,l-glaucine hydrobromide than for the d-glaucine hydrobromide

COc1cc2c(cc1OC)-c1c(OC)c(OC)cc3c1[C@H](C2)N(C)CC3 [d-glaucine, reference compound]
spontaneous activity and tone, in words [1]: dose-dependent increase of spontaneous activity and tone

COc1cc2c(cc1OC)-c1c(OC)c(OC)cc3c1C(C2)N(C)CC3 (racemic) [d,l-glaucine embonate]
Cough pulses during 8 minutes, percent of control value, after 1 h (cough pulses [7]): 80%
Cough pulses during 8 minutes, percent of control value, after 3 h (cough pulses [7]): 51%
Cough pulses during 8 minutes, percent of control value, after 5 h (cough pulses [7]): 57%
Cough pulses during 8 minutes, percent of control value, after 24 h (cough pulses [7]): 81%
duration of effect, in words (cough pulses [7]; guinea pigs, 378 mg/kg): considerably longer-lasting effect without any delay in the beginning of the effect

COc1cc2c(cc1OC)-c1c(OC)c(OC)cc3c1C(C2)N(C)CC3 (racemic) [d,l-glaucine hydrochloride]
Cough pulses during 8 minutes, percent of control value, after 1 h (cough pulses [7]; hydrochloride): 80%
Cough pulses during 8 minutes, percent of control value, after 3 h (cough pulses [7]; hydrochloride): 72%
Cough pulses during 8 minutes, percent of control value, after 5 h (cough pulses [7]; hydrochloride): 69%
Cough pulses during 8 minutes, percent of control value, after 24 h (cough pulses [7]; hydrochloride): 102%

COc1ccc2c3c1O[C@H]1[C@@H](O)C=C[C@H]4[C@@H](C2)N(C)CC[C@@]341 [codeine, reference compound]
contractive force of the muscle material, in words ([1]; molar concentrations between 1×10^-5 and 32×10^-5): produces contractions which depend on the dose

COc1cc2c(cc1OC)-c1c(OC)c(OC)cc3c1[C@H](C2)N(C)CC3 [d-glaucine hydrobromide, reference compound]
Distance travelled average % (of intestine length) (intestinal motility; 10 mg/kg): 74.6%
Distance travelled average % (of intestine length) (intestinal motility; 30 mg/kg): 80.1%
Distance travelled average % (of intestine length) (intestinal motility; 100 mg/kg): 36.4%
suppression of electrically induced contraction reflexes, in words ([2]; 4×10^-5): suppresses electrically induced contraction reflexes
electrically induced contractions (Table III) ([2]; molar concentration 1 × 10^-5, hydrobromide): 77 and 95
electrically induced contractions (Table III) ([2]; molar concentration 2 × 10^-5, hydrobromide): 74 and 79
electrically induced contractions (Table III) ([2]; molar concentration 4 × 10^-5, hydrobromide): 44 and 36
LD50 [4, 8]: 345 mg/kg
LD50 [4, 9]: 125 mg/kg
ED50 (cough pulses [5]): 54 mg/kg
induced spontaneous activity, in words [6]: the increasing spontaneous activity prevents any distinguishing between direct production and electric production of the activity
minimal effective dose (coughing centre): 1 mg/kg
Duration of cough suppression (coughing centre): 5 to 39 min
